Measurements reported in ChEMBL document CHEMBL1158808, “Eunicellin-based diterpenoids, australins A-D, isolated from the soft coral Cladiella australis” (2005).
Converted amounts (≈) assume the structure as drawn.

Tests used:
Assay type in all cases: functional
[1] = tested on: MDA-MB-231; assay: Cytotoxicity against human MDA-MB-231 cells after 6 days by MTT assay; conditions: MDA-MB-231, 144 h, read-out: ED50 (the source's name)
[2] = tested on: HepG2; assay: Cytotoxicity against human HepG2 cells after 6 days by MTT assay in presence of DMEM12; conditions: HepG2, 144 h, read-out: ED50 (the source's name)
[3] = tested on: MCF7; assay: Cytotoxicity against human MCF7 cells after 6 days by MTT assay; conditions: MCF7, 144 h, read-out: ED50 (the source's name)

SMILES: C=C1C[C@@]2(O)O[C@H]([C@@H]3[C@@H](C(C)C)CC[C@@](C)(OC(=O)CCC)[C@@H]32)[C@](C)(O)CC[C@@H]1OC(C)=O [AUSTARLIN B]
- EC50 [1]: 6.4 µg/mL (≈ 13.7 µM)
- EC50 [2]: 2.4 µg/mL
- EC50 [3]: 8.6 µg/mL (≈ 18.4 µM)

SMILES: C=C1CC[C@H]([C@@H](C)CO)[C@@H]2[C@H]1C(=O)C[C@@](C)(O)[C@H]1CC[C@@](C)(OC(=O)CCC)[C@@H]2O1 [AUSTARLIN D]
- EC50 [1]: 24.4 µg/mL (≈ 57.7 µM)
